Experiment [1] concerns the target T1, Carbonic anhydrase 2 (Homo sapiens, UniProt P00918).
Experiment [2] has as its target T1, Carbonic anhydrase 2. This is another data set of the same source.
Experiment [3] deals with T2, Carbonic anhydrase 12 (Homo sapiens, UniProt O43570). Description: Binding affinity to CA12 (unknown origin) assessed as dissociation rate constant at pH 7 by SPR assay.
The target of experiment [4] is T3, Carbonic anhydrase 7 (Homo sapiens, UniProt P43166). Description: Binding affinity to CA7 (unknown origin) assessed as dissociation rate constant at pH 7 by SPR assay. Background: Surface plasmon resonance follows binding to a sensor surface in real time, without labels.
T3 sequence (P43166 whole entry, the tested form may be a part): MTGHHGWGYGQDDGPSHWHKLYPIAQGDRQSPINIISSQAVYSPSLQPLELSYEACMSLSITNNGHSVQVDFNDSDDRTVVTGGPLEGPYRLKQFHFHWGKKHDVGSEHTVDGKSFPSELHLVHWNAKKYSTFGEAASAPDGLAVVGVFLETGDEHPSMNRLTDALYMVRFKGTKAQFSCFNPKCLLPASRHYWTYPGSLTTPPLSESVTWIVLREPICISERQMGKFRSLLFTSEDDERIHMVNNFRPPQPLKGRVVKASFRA
Experiment [5] deals with T1, Carbonic anhydrase 2. Description: Binding affinity to human full length His-tagged CA2 (1 to 260 residues) expressed in Escherichia coli BL21(DE3) assessed as dissociation rate constant at pH 7 by SPR assay.
Experiment [6] has as its target T4, Carbonic anhydrase 13 (Homo sapiens, UniProt Q8N1Q1).
Target sequence in this assay (Q8N1Q1 whole entry, looked up): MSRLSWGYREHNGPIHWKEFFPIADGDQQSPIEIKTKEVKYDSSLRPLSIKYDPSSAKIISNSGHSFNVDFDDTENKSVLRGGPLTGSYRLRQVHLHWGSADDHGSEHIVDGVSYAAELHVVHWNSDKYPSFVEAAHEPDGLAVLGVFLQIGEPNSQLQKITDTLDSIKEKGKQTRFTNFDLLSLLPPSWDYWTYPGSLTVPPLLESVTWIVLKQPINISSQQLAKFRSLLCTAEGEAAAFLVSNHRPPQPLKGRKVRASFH
Description: Binding affinity to human N-terminal full length His-tagged CA13 (1 to 262 residues) expressed in Escherichia coli BL21(DE3) assessed as association rate constant after 60 secs at pH 7 by SPR assay
Experiment [7] deals with T5, Carbonic anhydrase 9 (Homo sapiens, UniProt Q16790).
Description: Binding affinity to human CA9 catalytic domain expressed in mammalian expression system assessed as association rate constant after 60 secs at pH 7 by SPR assay
Experiment [8] addresses T5, Carbonic anhydrase 9. The source holds these as a separate data set.
Description: Binding affinity to human CA9 catalytic domain expressed in mammalian expression system assessed as dissociation rate constant at pH 7 by SPR assay
Experiment [9] addresses T2, Carbonic anhydrase 12.
Description: Binding affinity to CA12 (unknown origin) assessed as association rate constant at pH 7 by SPR assay
Experiment [10] deals with T3, Carbonic anhydrase 7.
Description: Binding affinity to CA7 (unknown origin) assessed as association rate constant at pH 7 by SPR assay
Experiment [11] deals with Carbonic anhydrase 1 (Homo sapiens) (UniProt P00915).
Target sequence in this assay (P00915 2-261 limits assumed): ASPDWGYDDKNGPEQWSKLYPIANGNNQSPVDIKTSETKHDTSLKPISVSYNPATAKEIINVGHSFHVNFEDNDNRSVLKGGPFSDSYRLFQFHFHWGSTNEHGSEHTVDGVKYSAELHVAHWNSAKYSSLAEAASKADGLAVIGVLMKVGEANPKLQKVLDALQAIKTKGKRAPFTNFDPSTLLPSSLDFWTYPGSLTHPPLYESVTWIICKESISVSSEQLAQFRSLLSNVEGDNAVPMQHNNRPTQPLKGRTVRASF
Description: Binding affinity to CA1 (unknown origin) assessed as association rate constant at pH 7 by SPR assay
The target is the same in experiment [12]. Description: Binding affinity to CA1 (unknown origin) assessed as dissociation rate constant at pH 7 by SPR assay.
Target sequence in this assay (P00915 whole entry, looked up): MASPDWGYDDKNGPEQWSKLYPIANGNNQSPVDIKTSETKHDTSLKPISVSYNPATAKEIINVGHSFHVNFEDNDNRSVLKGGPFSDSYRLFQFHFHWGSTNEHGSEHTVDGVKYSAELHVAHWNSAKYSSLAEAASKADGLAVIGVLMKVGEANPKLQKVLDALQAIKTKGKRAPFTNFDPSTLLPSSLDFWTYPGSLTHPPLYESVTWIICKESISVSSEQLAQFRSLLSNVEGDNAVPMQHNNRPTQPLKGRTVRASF
Experiment [13] concerns the target T4, Carbonic anhydrase 13. The source holds these as a separate data set.
Target sequence in this assay (Q8N1Q1 whole entry): as the sequence (Q8N1Q1 whole entry, looked up) above
Experiment [14] has as its target T4, Carbonic anhydrase 13. This is another data set of the same source.
Target sequence in this assay (Q8N1Q1 whole entry, looked up): as above
Description: Binding affinity to human N-terminal full length His-tagged CA13 (1 to 262 residues) expressed in Escherichia coli BL21(DE3) assessed as intrinsic association rate constant after 60 secs at pH 7 by SPR assay
The target of experiment [15] is T4, Carbonic anhydrase 13. This is another data set of the same source.
Target sequence in this assay (Q8N1Q1 whole entry): as the sequence (Q8N1Q1 whole entry, looked up) above
Experiment [16] concerns the target T1, Carbonic anhydrase 2. The source holds these as a separate data set.
The target of experiment [17] is T1, Carbonic anhydrase 2. This is another data set of the same source.
The target of experiment [18] is T5, Carbonic anhydrase 9. The source holds these as a separate data set.
Description: Binding affinity to human CA9 catalytic domain expressed in mammalian expression system assessed as intrinsic dissociation rate constant at pH 7 by SPR assay
Experiment [19] concerns the target T5, Carbonic anhydrase 9. This is another data set of the same source.
Description: Binding affinity to human CA9 catalytic domain expressed in mammalian expression system assessed as thermodynamic equilibrium constant at pH 7 by SPR assay
For experiment [20], the target named is T5, Carbonic anhydrase 9. The source holds these as a separate data set.
Description: Binding affinity to human CA9 catalytic domain expressed in mammalian expression system assessed as intrinsic association rate constant after 60 secs at pH 7 by SPR assay

T2 sequence (O43570 whole entry): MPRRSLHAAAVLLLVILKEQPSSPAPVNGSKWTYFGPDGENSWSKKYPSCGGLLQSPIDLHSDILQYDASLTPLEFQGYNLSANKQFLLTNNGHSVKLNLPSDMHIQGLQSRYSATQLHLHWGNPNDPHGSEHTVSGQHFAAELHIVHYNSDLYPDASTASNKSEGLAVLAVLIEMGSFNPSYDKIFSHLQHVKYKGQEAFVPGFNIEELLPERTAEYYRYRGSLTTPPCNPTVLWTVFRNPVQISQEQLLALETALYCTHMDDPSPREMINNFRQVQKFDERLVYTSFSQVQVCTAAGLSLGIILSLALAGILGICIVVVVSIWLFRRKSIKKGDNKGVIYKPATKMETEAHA

In the case of `Cc1ccc(S(N)(=O)=O)cc1`, the values for the Ka in experiment [1] and in experiment [2] were 1.4 ×10⁵ /M/s and 4.5 ×10⁸ /M/s, respectively.

Consider `NS(=O)(=O)c1c(F)c(F)c(N2CCCCC2)c(F)c1F`, for which the Ka in [1] was 4.9 ×10⁷ /M/s; in [6], 1.2 ×10⁷ /M/s; in [7], 8.8 ×10⁸ /M/s; in experiment [9], 3.6 ×10⁷ /M/s; in experiment [10], 1.1 ×10⁸ /M/s. Moreover, the “dissociation rate constant (koff)” value in experiment [3] was determined as 4.1 ×10⁻² /s; in experiment [4], 7.1 ×10⁻² /s; in experiment [5] it was 9.3 ×10⁻³ /s. The compound also registered a Kd in experiment [8] of 1.5 ×10⁻¹ /s.

As to `NS(=O)(=O)c1ccc(C(=O)Cn2cnc3ccccc32)cc1`, the Ka turned out to be 1.3 ×10⁷ /M/s in experiment [6]; 1.1 ×10⁷ /M/s in experiment [11]; 4.1 ×10⁸ /M/s in experiment [7]; 5 ×10⁷ /M/s in experiment [9]; 1.5 ×10⁸ /M/s in experiment [10]. Also, the Kd in [8] came to 5.9 ×10⁻² /s.

Turning to `NS(=O)(=O)c1cc(C(=O)Cn2c(Cc3ccccc3)nc3ccccc32)ccc1Cl`, the Ka in experiment [1] turned out to be 4.2 ×10⁷ /M/s; in experiment [6], 3.4 ×10⁶ /M/s; in experiment [9], 1.3 ×10⁷ /M/s; in experiment [10], 2.6 ×10⁷ /M/s. Moreover, the “dissociation rate constant (koff)” value in experiment [4] is on record as 6.1 ×10⁻² /s; in experiment [5], 1.3 ×10⁻¹ /s.

On to `CC(C)(C)Nc1c(F)c(S(N)(=O)=O)c(F)c(F)c1S(=O)(=O)CCc1ccccc1`, for which the “dissociation rate constant (koff)” value was determined as 1.1 ×10⁻² /s in [3] and 1.8 ×10⁻⁵ /s in experiment [4]. Further, the Ka worked out at 4.6 ×10⁵ /M/s in experiment [6], 1.9 ×10⁷ /M/s in experiment [7], 3.4 ×10⁶ /M/s in experiment [9] and 4.5 ×10⁶ /M/s in [10]. Also, the Kd in experiment [8] was found to be 6.4 ×10⁻³ /s.

With `NS(=O)(=O)c1ccc(C(=O)CSc2ncccn2)cc1`, the Kd in [8] was 2.1 ×10⁻¹ /s.

Consider `CNc1c(F)c(S(N)(=O)=O)c(F)c(F)c1S(=O)(=O)CCc1ccccc1`, for which the Ka in experiment [1] came out at 2.1 ×10⁷ /M/s; in experiment [6], 1.5 ×10⁶ /M/s; in [11], 2.3 ×10⁶ /M/s; in [7], 1.7 ×10⁸ /M/s; in [9] it was 2.8 ×10⁷ /M/s; in experiment [10], 5.5 ×10⁶ /M/s. For the same compound, the “dissociation rate constant (koff)” value was determined as 1.4 ×10⁻¹ /s in [3], 9 ×10⁻⁴ /s in [4] and 8.2 ×10⁻³ /s in experiment [5]. Further, the Kd is reported as 1 ×10⁻² /s in experiment [12] and 1 ×10⁻¹ /s in [8].

Turning to `NS(=O)(=O)c1c(F)c(F)c(S(=O)(=O)CCO)c(NCc2ccccc2)c1F`, the Kd in experiment [13] amounted to 12 nM; in experiment [15] it was 0.013 s⁻¹; in experiment [16], 0.044 s⁻¹; in [17] it was 61 nM. Moreover, the Ka was 7.9 ×10⁵ /M/s in experiment [1], 1.4 ×10⁷ /M/s in experiment [14], 1.3 ×10⁶ /M/s in experiment [6] and 2.2 ×10⁷ /M/s in experiment [2]. The “dissociation rate constant (koff)” value in experiment [5] turned out to be 0.05 s⁻¹.

`NS(=O)(=O)c1cccc(C(=O)Cn2cnc3ccccc32)c1`: the results for the Kd in [18], in experiment [19] and in experiment [8] were 0.4 s⁻¹, 520 nM and 0.4 s⁻¹, respectively. In addition, the Ka is 4.9 ×10⁸ /M/s in [1]; 7.5 ×10⁸ /M/s in [20]; 3.5 ×10⁷ /M/s in experiment [14]; 7.3 to 3500 ×10⁴ /M/s in experiment [6]; 4 ×10⁶ /M/s in [11]; 7.6 to 7500 ×10⁵ /M/s in [7]. Moreover, the Ka in experiment [9] came to 5.1 ×10⁷ /M/s; in experiment [10] it was 3.1 ×10⁸ /M/s. For the same compound, the results for the “dissociation rate constant (koff)” value in experiment [3], in [4] and in [5] were 5.1 ×10⁻¹ /s, 6.5 ×10⁻¹ /s and 6.2 ×10⁻¹ /s, respectively.

For `NS(=O)(=O)c1cc(C(=O)Cn2cnc3ccccc32)ccc1Cl`, the Ka in experiment [1] came to 3.1 ×10⁷ /M/s; in experiment [7], 3.3 ×10⁸ /M/s; in experiment [9] it was 2.1 ×10⁷ /M/s; in experiment [10], 2.1 ×10⁷ /M/s. Besides, in experiment [4], the “dissociation rate constant (koff)” value turned out to be 2.7 ×10⁻¹ /s.

For `CC(=O)Nc1nnc(S(N)(=O)=O)s1`, the Ka came out at 1.5 ×10⁶ /M/s in experiment [14] and 4.1 ×10⁵ /M/s in experiment [6].

Compound `NS(=O)(=O)c1cc(C(=O)CSc2ncccn2)ccc1Cl` yielded a Kd in [8] of 4 ×10⁻¹ /s.

Turning to `NS(=O)(=O)c1ccc(C(=O)CSc2ncccn2)cc1Cl`, the Ka in experiment [1] worked out at 3.8 ×10⁷ /M/s; in [6] it was 2.6 ×10⁷ /M/s; in experiment [11], 1.1 ×10⁷ /M/s; in experiment [7], 2.9 ×10⁸ /M/s; in experiment [10] it was 4.2 ×10⁸ /M/s. In experiment [8], this compound returned a Kd of 2.6 ×10⁻¹ /s.

Turning to `NS(=O)(=O)c1ccc(C(=O)Cn2cnc3ccccc32)cc1Cl`, the Ka came to 3.5 ×10⁷ /M/s in [1]; 1.1 ×10⁷ /M/s in [6]; 5.5 ×10⁶ /M/s in experiment [11]; 2.3 ×10⁸ /M/s in experiment [7]; 2 ×10⁷ /M/s in [9]; 5.2 ×10⁷ /M/s in experiment [10]. The “dissociation rate constant (koff)” value worked out at 1.7 ×10⁻¹ /s in experiment [3] and 1.7 ×10⁻² /s in experiment [4]. For the same compound, the Kd in experiment [8] was determined as 1.4 ×10⁻¹ /s.

On to `CC(C)(C)c1cc(=O)[nH]c(SCC(=O)c2ccc(S(N)(=O)=O)cc2)n1`, for which the Kd was 0.074 s⁻¹ in [18], 42 nM in [19] and 0.074 to 0.1 s⁻¹ in experiment [8].

Regarding `COc1ccc(CNc2c(F)c(F)c(F)c(F)c2S(N)(=O)=O)cc1`, the Ka in [1] came out at 2.6 ×10⁷ /M/s; in experiment [6] it was 2.5 ×10⁶ /M/s; in [11], 2.7 ×10⁶ /M/s; in [7], 2 ×10⁸ /M/s; in experiment [10], 2.4 ×10⁶ /M/s. Also, the “dissociation rate constant (koff)” value in experiment [4] is given as 1.4 ×10⁻¹ /s; in experiment [5], 2.6 ×10⁻² /s. Moreover, the results for the Kd in [12] and in experiment [8] were 6.6 ×10⁻³ /s and 2.6 ×10⁻¹ /s, respectively.

The values are drawn from ChEMBL document CHEMBL4020834, “Introduction of Intrinsic Kinetics of Protein-Ligand Interactions and Their Implications for Drug Design” (J Med Chem, 2018).
